Data on 63 compounds can be found in ChEMBL document CHEMBL5393456, “Dichlorophenol hsd17b13 inhibitors and uses thereof” (2022).

As a reminder, the IC50 is the concentration that inhibits the measured activity by half. Higher therefore signals weaker potency.

The target in this assay is T1, 17-beta-hydroxysteroid dehydrogenase 13 (Homo sapiens, UniProt Q7Z5P4).
T1 sequence (Q7Z5P4 whole entry): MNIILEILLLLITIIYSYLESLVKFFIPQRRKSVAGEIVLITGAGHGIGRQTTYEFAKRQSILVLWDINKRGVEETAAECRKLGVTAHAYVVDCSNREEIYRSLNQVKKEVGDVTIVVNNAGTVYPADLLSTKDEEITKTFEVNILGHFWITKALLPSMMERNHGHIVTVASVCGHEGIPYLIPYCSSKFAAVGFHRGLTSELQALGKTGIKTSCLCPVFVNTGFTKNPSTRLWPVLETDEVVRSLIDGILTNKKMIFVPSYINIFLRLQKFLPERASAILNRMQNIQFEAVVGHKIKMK
Nature of the assay: Inhibition of His-tagged HSD17B13 (unknown origin) expressed in Escherichia coli using estradiol as substrate incubated for 2 hrs and measured by LC/MS estrone detection assay.
On to `[2H]C([2H])([2H])c1nc2c(C)ccc(NC(=O)c3cc(Cl)c(O)c(Cl)c3)c2c(=O)n1Cc1ccccc1OC(F)(F)F`, for which the half-maximal inhibitory concentration (IC50) was ≤ 100 nM.
Take `Cn1c(=O)n(Cc2ccccc2OC(F)(F)F)c(=O)c2c(NC(=O)c3cc(Cl)c(O)c(Cl)c3)cccc21`: the IC50 is ≤ 100 nM.
Under `O=C(Nc1ccc(Cl)c2ncn(Cc3ccccc3OC(F)(F)F)c(=O)c12)c1cc(Cl)c(O)c(Cl)c1` stands ≤ 100 nM.
As for `O=C(Nc1ccc(F)c2ncn(Cc3ccccc3C(F)(F)F)c(=O)c12)c1cc(Cl)c(O)c(Cl)n1`, the IC50 was ≤ 100 nM.
Under `Cc1nc2cccc(NC(=O)c3cc(Cl)c(O)c(Cl)c3)c2c(=O)n1Cc1ccccc1OC(F)(F)F` stands ≤ 100 nM.
On to `Cc1ccc(NC(=O)c2cc(Cl)c(O)c(Cl)c2)c2c(=O)n(Cc3ccccc3OC(F)(F)F)c(C(F)F)nc12`, for which the IC50 is ≤ 100 nM.
Regarding `O=C(Nc1cc(Cl)sc1C(=O)NCc1ccccc1OC(F)(F)F)c1cc(Cl)c(O)c(Cl)c1`, the IC50 is ≤ 100 nM.
Take `O=C(Nc1cc(Cl)sc1C(=O)NCCc1ccccc1OC(F)(F)F)c1cc(Cl)c(O)c(Cl)c1`: the IC50 is ≤ 500 nM.
With `O=C(Nc1scnc1C(=O)NCc1ccccc1OC(F)(F)F)c1cc(Cl)c(O)c(Cl)n1` the figure was ≤ 100 nM; with `O=C(Nc1cccc2ncn(Cc3ccccc3C(F)(F)F)c(=O)c12)c1cc(Cl)c(O)c(Cl)c1`, ≤ 100 nM.
On to `O=C(N[C@H]1CCCC[C@@H]1C(=O)NCc1ccccc1OC(F)(F)F)c1cc(Cl)c(O)c(Cl)n1`, for which the half-inhibitory concentration (IC50) was > 10000 nM.
On to `O=C(Nc1scnc1C(=O)NCc1cccc(F)c1)c1cc(Cl)c(O)c(Cl)c1`, for which the half-inhibitory concentration (IC50) is ≤ 100 nM.
For the compound `Cc1nc2c(F)ccc(NC(=O)c3cc(Cl)c(O)c(Cl)c3)c2c(=O)n1Cc1ccccc1OC(F)(F)F`, the 50% inhibitory concentration (IC50) was ≤ 100 nM.
With `O=C(Nc1cccc2ncn(Cc3ncccc3Cl)c(=O)c12)c1cc(Cl)c(O)c(Cl)c1` the figure was ≤ 100 nM.
Regarding `N#Cc1ccccc1Cn1cnc2cccc(NC(=O)c3cc(Cl)c(O)c(Cl)c3)c2c1=O`, the IC50 was ≤ 100 nM.
With `O=C(Nc1cccc2ncn(Cc3ccccc3OC(F)(F)F)c(=O)c12)c1cc(Cl)c(O)c(Cl)c1` the figure was ≤ 100 nM; with `C[C@@H](c1cccc(F)c1)n1cnc2cccc(NC(=O)c3cc(Cl)c(O)c(Cl)n3)c2c1=O`, ≤ 100 nM; with `Cc1nc2c(F)ccc(NC(=O)c3cc(Cl)c(O)c(Cl)c3)c2c(=O)n1Cc1nn(C)c2ccccc12`, ≤ 100 nM.
Under `Cn1nc(Cn2cnc3cccc(NC(=O)c4cc(Cl)c(O)c(Cl)c4)c3c2=O)c2ccccc21` stands ≤ 100 nM; under `O=C(Nc1cccc2ncn(Cc3ccccc3N3CCOCC3)c(=O)c12)c1cc(Cl)c(O)c(Cl)c1`, ≤ 100 nM.
For `Cc1ccc(NC(=O)c2cc(Cl)c(O)c(Cl)c2)c2c(=O)n(Cc3ccccc3C(F)(F)F)c(C(F)F)nc12`, the IC50 is ≤ 100 nM.
As to `O=C(Nc1cccc2ncn(C3(c4ccccc4F)CC3)c(=O)c12)c1cc(Cl)c(O)c(Cl)c1`, the IC50 was ≤ 100 nM.
On to `O=C(Nc1scnc1C(=O)NCc1ccccc1C(F)(F)F)c1cc(Cl)c(O)c(Cl)c1`, for which the IC50 is ≤ 100 nM.
Regarding `CN(C)CCOc1ccc(NC(=O)c2cc(Cl)c(O)c(Cl)c2)c(C(=O)NCc2ccccc2OC(F)(F)F)c1`, the IC50 is > 10000 nM.
Regarding `[2H]C([2H])(c1ccccc1C(F)(F)F)n1c(C)nc2c(C)ccc(NC(=O)c3cc(Cl)c(O)c(Cl)c3)c2c1=O`, the IC50 was ≤ 100 nM.
Take `O=C(Nc1cccc2ncn(Cc3ccccc3-c3ccccn3)c(=O)c12)c1cc(Cl)c(O)c(Cl)c1`: the IC50 was ≤ 500 nM.
Under `O=C(Nc1cccc2ncn(Cc3ccc(C(F)(F)F)cc3)c(=O)c12)c1cc(Cl)c(O)c(Cl)c1` stands ≤ 100 nM; under `O=C(Nc1cccc2ncn(Cc3cccc(F)c3)c(=O)c12)c1cc(Cl)c(O)c(Cl)n1`, ≤ 100 nM.
Regarding `Cc1nc2c(F)ccc(NC(=O)c3cc(Cl)c(O)c(Cl)c3)c2c(=O)n1Cc1ccccc1C(F)(F)F`, the IC50 is ≤ 100 nM.
With `Cc1ccc(NC(=O)c2cc(Cl)c(O)c(Cl)c2)c2c(=O)n([C@@H]3CC[C@H]3c3ccccc3)c(C)nc12`, the IC50 is ≤ 100 nM.
For the compound `O=C(Nc1cccc2ncn(Cc3ncccc3C(F)(F)F)c(=O)c12)c1cc(Cl)c(O)c(Cl)c1`, the IC50 was ≤ 100 nM.
In the case of `Cc1nc2nccc(NC(=O)c3cc(Cl)c(O)c(Cl)c3)c2c(=O)n1Cc1ccccc1OC(F)(F)F`, the IC50 was ≤ 100 nM.
`O=C(Nc1cccc2ncn(Cc3cccc(C(F)(F)F)c3)c(=O)c12)c1cc(Cl)c(O)c(Cl)c1`: the IC50 was ≤ 100 nM.
For the compound `COc1ccccc1CCNC(=O)c1sccc1NC(=O)c1cc(Cl)c(O)c(Cl)c1`, the IC50 is ≤ 100 nM.
As for `Cc1ccc(NC(=O)c2cc(Cl)c(O)c(Cl)c2)c2c(=O)n(Cc3ncccc3C(F)(F)F)c(C)nc12`, the 50% inhibitory concentration (IC50) is ≤ 100 nM.
With `Cn1nc(CNC(=O)c2ncsc2NC(=O)c2cc(Cl)c(O)c(Cl)c2)c2ccccc21`, the IC50 was ≤ 100 nM.
For `O=C(Nc1ccc(F)c2ncn(Cc3ccccc3C(F)(F)F)c(=O)c12)c1cc(Cl)c(O)c(Cl)c1`, the IC50 is ≤ 100 nM.
Turning to `[2H]C([2H])([2H])c1nc2c(C)ccc(NC(=O)c3cc(Cl)c(O)c(Cl)n3)c2c(=O)n1Cc1ccccc1OC(F)(F)F`, the IC50 is ≤ 100 nM.
With `O=C(NCc1ccccc1OC(F)(F)F)C1CCCN1C(=O)c1cc(Cl)c(O)c(Cl)c1` (stereo not drawn) the figure was > 10000 nM; with `Cc1nc2c(F)ccc(NC(=O)c3cc(Cl)c(O)c(Cl)c3)c2c(=O)n1Cc1ncccc1C(F)(F)F`, ≤ 100 nM.
Under `O=C(Nc1cccc2ncn(Cc3n[nH]c4ccccc34)c(=O)c12)c1cc(Cl)c(O)c(Cl)c1` stands ≤ 100 nM; under `NS(=O)(=O)c1ccccc1Cn1cnc2cccc(NC(=O)c3cc(Cl)c(O)c(Cl)c3)c2c1=O`, > 10000 nM; under `O=C(Nc1ccc(F)c2ncn(Cc3ccccc3OC(F)(F)F)c(=O)c12)c1cc(Cl)c(O)c(Cl)c1`, ≤ 100 nM.
As for `Cc1ccc(NC(=O)c2cc(Cl)c(O)c(Cl)c2)c2c(=O)n(Cc3ccccc3C(F)(F)F)c(C)nc12`, the half-inhibitory concentration (IC50) was ≤ 100 nM.
`Cc1nsc(NC(=O)c2cc(Cl)c(O)c(Cl)c2)c1C(=O)N[C@@H](C)c1ccccc1F`: the IC50 is ≤ 100 nM.
On to `Cc1ccc(NC(=O)c2cc(Cl)c(O)c(Cl)c2)c2c(=O)n(Cc3ccccc3OC(F)(F)F)cnc12`, for which the IC50 is ≤ 100 nM.
With `O=C(Nc1cccc2ncn(Cc3cccc(OC(F)(F)F)c3)c(=O)c12)c1cc(Cl)c(O)c(Cl)c1`, the IC50 is ≤ 100 nM.
With `O=C(NCc1ccccc1OC(F)(F)F)C1CCCN1C(=O)c1cc(Cl)c(O)c(Cl)n1` (stereo not drawn) the figure was > 10000 nM; with `Cc1ccc(NC(=O)c2cc(Cl)c(O)c(Cl)n2)c2c(=O)n(Cc3ccccc3OC(F)(F)F)c(C)nc12`, ≤ 100 nM; with `Cc1ccc(NC(=O)c2cc(Cl)c(O)c(Cl)n2)c2c(=O)n(Cc3ccccc3OC(F)(F)F)c(C(F)F)nc12`, ≤ 100 nM.
For `Cc1nc2c(F)ccc(NC(=O)c3cc(Cl)c(O)c(Cl)n3)c2c(=O)n1Cc1ccccc1OC(F)(F)F`, the IC50 was ≤ 100 nM.
Under `O=C(Nc1cccc2ncn(Cc3ccccc3F)c(=O)c12)c1cc(Cl)c(O)c(Cl)n1` stands ≤ 100 nM.
`O=C(Nc1cccc2ncn(Cc3cccnc3C(F)(F)F)c(=O)c12)c1cc(Cl)c(O)c(Cl)c1`: the IC50 was ≤ 100 nM.
As for `Cc1ccc(NC(=O)c2cc(Cl)c(O)c(Cl)c2)c2c(=O)n(Cc3ccccc3C(F)(F)F)c(CF)nc12`, the 50% inhibitory concentration (IC50) is ≤ 100 nM.
For `O=C(Nc1cccc2ncn(Cc3ccn(-c4ccccc4F)n3)c(=O)c12)c1cc(Cl)c(O)c(Cl)c1`, the IC50 is ≤ 100 nM.
With `O=C(Nc1cccc2ncn(C(c3ccccc3)c3ccccc3)c(=O)c12)c1cc(Cl)c(O)c(Cl)c1` the figure was ≤ 100 nM.
As for `C[C@H](c1cccc(F)c1)n1cnc2cccc(NC(=O)c3cc(Cl)c(O)c(Cl)c3)c2c1=O`, the half-inhibitory concentration (IC50) was ≤ 100 nM.
As for `C[C@@H](c1cccc(F)c1)n1cnc2cccc(NC(=O)c3cc(Cl)c(O)c(Cl)c3)c2c1=O`, the IC50 is ≤ 100 nM.
Take `Cc1nc2c(Cl)ccc(NC(=O)c3cc(Cl)c(O)c(Cl)c3)c2c(=O)n1Cc1ccccc1C(F)(F)F`: the IC50 was ≤ 100 nM.
For `Cc1ccc(NC(=O)c2cc(Cl)c(O)c(Cl)c2)c2c(=O)n(Cc3ccccc3OC(F)(F)F)c(C)nc12`, the IC50 was ≤ 100 nM.
Regarding `O=C(Nc1scnc1C(=O)NCc1ccccc1OC(F)(F)F)c1cc(Cl)c(O)c(Cl)c1`, the IC50 is ≤ 100 nM.
For the compound `O=C(Nc1cccc2ncn(Cc3ccccc3C(F)(F)F)c(=O)c12)c1cc(Cl)c(O)c(Cl)n1`, the IC50 is ≤ 100 nM.
Turning to `[2H]C([2H])([2H])c1nc2c(C)ccc(NC(=O)c3cc(Cl)c(O)c(Cl)c3)c2c(=O)n1Cc1ccccc1C(F)(F)F`, the IC50 was ≤ 100 nM.
